Measured values reported in patent US20260262643A1, “HERBICIDAL BENZOXAZINES” (FMC CORPORATION, priority 2022, published 2026).

Assays:
horseweed = experiment: Test C postemergence; assay type: in vivo, Erigeron canadensis; conditions: 10 days, 0 to 100 scale (0 no effect, 100 complete control)
In short: (§1)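 Visual injury ratings on a 0–100 scale (100 = complete control) were made against untreated controls 10 days after treatment in the greenhouse. Compounds, formulated with surfactant in non-phytotoxic solvent, were sprayed on soil preemergence or onto one- to two-leaf plants 2–10 cm tall postemergence.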

oat, wild [1] = experiment: Test C preemergence; assay type: in vivo, Avena fatua
In short: as §1

barnyardgrass [2] = experiment: Test C postemergence; assay type: in vivo, Echinochloa crusgalli; conditions: 10 days, 0 to 100 scale (0 no effect, 100 complete control)
In short: as §1

soybean [3] = experiment: Test C postemergence; assay type: in vivo, Glycine max; conditions: 10 days, 0 to 100 scale (0 no effect, 100 complete control)
In short: as §1

oat, wild [4] = experiment: Test C postemergence; assay type: in vivo, Avena fatua; conditions: 10 days, 0 to 100 scale (0 no effect, 100 complete control)
In short: as §1

ryegrass, Italian [5] = experiment: Test C preemergence; assay type: in vivo, Lolium multiflorum
In short: as §1

green foxtail [6] = experiment: Test C preemergence; assay type: in vivo, Setaria viridis
In short: as §1

wheat [7] = experiment: Test C preemergence; assay type: in vivo, Triticum aestivum
In short: as §1

soybean [8] = experiment: Test C preemergence; assay type: in vivo, Glycine max
In short: as §1

corn [9] = experiment: Test C postemergence; assay type: in vivo, Zea mays; conditions: Zea mays, post-emergence, 240 h, 10 days, 0 to 100 scale (0 no effect, 100 complete control)
In short: as §1

ragweed [10] = experiment: Test C postemergence; assay type: in vivo, Ambrosia artemisiifolia; conditions: 10 days, 0 to 100 scale (0 no effect, 100 complete control)
In short: as §1

wheat [11] = experiment: Test C postemergence; assay type: in vivo, Triticum aestivum; conditions: 10 days, 0 to 100 scale (0 no effect, 100 complete control)
In short: as §1

ducksalad = experiment: Test D flooded paddy test; assay type: in vivo, Heteranthera limosa; conditions: 250 g ai/ha, applied to paddy water, visual rating after 13 to 14 days, scale 0 to 100 (0 no effect, 100 complete control)
In short: (§2)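 Plants grown to the 2-leaf stage; pots flooded to 3 cm above soil at treatment and held at that depth throughout. Test compounds applied directly to the paddy water. After 13 to 14 days in a greenhouse, response was rated visually versus controls on a 0 (no effect) to 100 (complete control) scale.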

ragweed [12] = experiment: Test C preemergence; assay type: in vivo, Ambrosia artemisiifolia
In short: as §1

kochia [13] = experiment: Test C postemergence; assay type: in vivo, Bassia scoparia; conditions: 10 days, 0 to 100 scale (0 no effect, 100 complete control)
In short: as §1

blackgrass [14] = experiment: Test C preemergence; assay type: in vivo, Alopecurus myosuroides
In short: as §1

galium = experiment: Test C postemergence; assay type: in vivo, Galium aparine; conditions: 10 days, 0 to 100 scale (0 no effect, 100 complete control)
In short: as §1

blackgrass [15] = experiment: Test C postemergence; assay type: in vivo, Alopecurus myosuroides; conditions: Alopecurus myosuroides, post-emergence, 240 h, 10 days, 0 to 100 scale (0 no effect, 100 complete control), read-out: Plant response rating, Blackgrass
In short: as §1

rice = experiment: Test D flooded paddy test; assay type: in vivo, Oryza sativa; conditions: 250 g ai/ha, applied to paddy water, visual rating after 13 to 14 days, scale 0 to 100 (0 no effect, 100 complete control)
In short: as §2

barnyardgrass [16] = experiment: Test C preemergence; assay type: in vivo, Echinochloa crusgalli
In short: as §1

pigweed, palmer [17] = experiment: Test C preemergence; assay type: in vivo, Amaranthus palmeri
In short: as §1

green foxtail [18] = experiment: Test C postemergence; assay type: in vivo, Setaria viridis; conditions: 10 days, 0 to 100 scale (0 no effect, 100 complete control)
In short: as §1

corn [19] = experiment: Test C preemergence; assay type: in vivo, Zea mays
In short: as §1

sedge, umbrella = experiment: Test D flooded paddy test; assay type: in vivo, Cyperus difformis; conditions: 250 g ai/ha, applied to paddy water, visual rating after 13 to 14 days, scale 0 to 100 (0 no effect, 100 complete control)
In short: as §2

kochia [20] = experiment: Test C preemergence; assay type: in vivo, Bassia scoparia
In short: as §1

pigweed, palmer [21] = experiment: Test C postemergence; assay type: in vivo, Amaranthus palmeri; conditions: 10 days, 0 to 100 scale (0 no effect, 100 complete control)
In short: as §1

ryegrass, Italian [22] = experiment: Test C postemergence; assay type: in vivo, Lolium multiflorum; conditions: 10 days, 0 to 100 scale (0 no effect, 100 complete control)
In short: as §1

barnyardgrass [23] = experiment: Test D flooded paddy test; assay type: in vivo, Echinochloa crus-galli; conditions: 250 g ai/ha, applied to paddy water, visual rating after 13 to 14 days, scale 0 to 100 (0 no effect, 100 complete control)
In short: as §2

[24] = 500 g ai/ha, preemergence, 0 to 100 scale (0 no effect, 100 complete control)
[25] = Preemergence, 125 g ai/ha, 0 to 100 scale, 0 no effect, 100 complete control

CCOC[C@H]1CN(C(=O)c2cc(-n3cnc(C(C)C)n3)ccc2C)c2cccc(Cl)c2O1 [Compound 340, [(2R)-8-chloro-2-(ethoxymethyl)-2,3-dihydro-1,4-benzoxazin-4-yl]-[5-(3-isopropyl-1,2,4-triazol-1-yl)-2-methyl-phenyl]methanone]
50: Plant response rating, Barnyardgrass (barnyardgrass [2]; Postemergence, 125 g ai/ha) | Plant response rating, Wheat (wheat [7]; [25]) | Plant response rating, Blackgrass (blackgrass [14]; [25])
0: Plant response rating, Rice (Flood) (rice) | Plant response rating, Barnyardgrass (Flood) (barnyardgrass [23])
20: Plant response rating, Oat, Wild (oat, wild [4]; 500 g ai/ha, postemergence) | Plant response rating, Corn (corn [19]; [25])
60%: Corn plant response rating (crop injury, 0 = no effect, 100 = complete kill) at 500 g/ha (corn [9]; 500 g ai/ha, postemergence) | Corn plant response rating (crop injury, 0 = no effect, 100 = complete kill) at 125 g/ha (corn [9]; Postemergence, 125 g ai/ha) | pest or weed control at 500 g/ha (blackgrass [15]; 500 g ai/ha, postemergence)
80: Oat, Wild plant response rating (oat, wild [1]; [24]) | Wheat plant response rating (wheat [7]; [24]) | Plant response rating, Ragweed (ragweed [10]; 500 g ai/ha, postemergence) | Plant response rating, Ragweed (ragweed [12]; [25]) | Plant response rating, Pigweed, Palmer (pigweed, palmer [21]; Postemergence, 125 g ai/ha) | Plant response rating, Ryegrass, Italian (ryegrass, Italian [22]; 500 g ai/ha, postemergence)
40: Corn plant response rating (corn [19]; [24])
90: Plant response rating, Ryegrass, Italian (ryegrass, Italian [5]; [25]) | Plant response rating, Kochia (kochia [13]; 500 g ai/ha, postemergence) | Plant response rating, Kochia (kochia [13]; Postemergence, 125 g ai/ha) | Blackgrass plant response rating (blackgrass [14]; [24]) | Plant response rating, Galium (galium; Postemergence, 125 g ai/ha) | Plant response rating, Barnyardgrass (barnyardgrass [16]; [25]) | Plant response rating, Kochia (kochia [20]; [25])
60: Plant response rating, Horseweed (horseweed; 500 g ai/ha, postemergence) | Plant response rating, Barnyardgrass (barnyardgrass [2]; 500 g ai/ha, postemergence) | Plant response rating, Sedge, Umbrella (Flood) (sedge, umbrella) | Plant response rating, Ryegrass, Italian (ryegrass, Italian [22]; Postemergence, 125 g ai/ha)
75: Plant response rating, Ducksalad (Flood) (ducksalad)
70: Plant response rating, Oat, Wild (oat, wild [1]; [25]) | Plant response rating, Ragweed (ragweed [10]; Postemergence, 125 g ai/ha) | Plant response rating, Foxtail, Green (green foxtail [18]; 500 g ai/ha, postemergence)
30: Plant response rating, Horseweed (horseweed; Postemergence, 125 g ai/ha) | Plant response rating, Soybean (soybean [8]; [25]) | Plant response rating, Wheat (wheat [11]; 500 g ai/ha, postemergence) | Plant response rating, Foxtail, Green (green foxtail [18]; Postemergence, 125 g ai/ha)
100: Plant response rating, Soybean (soybean [3]; 500 g ai/ha, postemergence) | Plant response rating, Soybean (soybean [3]; Postemergence, 125 g ai/ha) | Ryegrass, Italian plant response rating (ryegrass, Italian [5]; [24]) | Foxtail, Green plant response rating (green foxtail [6]; [24]) | Plant response rating, Foxtail, Green (green foxtail [6]; [25]) | Soybean plant response rating (soybean [8]; [24]) | Ragweed plant response rating (ragweed [12]; [24]) | Plant response rating, Galium (galium; 500 g ai/ha, postemergence) | Barnyardgrass plant response rating (barnyardgrass [16]; [24]) | Pigweed, Palmer plant response rating (pigweed, palmer [17]; [24]) | Plant response rating, Pigweed, Palmer (pigweed, palmer [17]; [25]) | Kochia plant response rating (kochia [20]; [24]) | Plant response rating, Pigweed, Palmer (pigweed, palmer [21]; 500 g ai/ha, postemergence)
20%: pest or weed control at 125 g/ha (blackgrass [15]; Postemergence, 125 g ai/ha)
10: Plant response rating, Oat, Wild (oat, wild [4]; Postemergence, 125 g ai/ha) | Plant response rating, Wheat (wheat [11]; Postemergence, 125 g ai/ha)
